From patent US4632940A, “N-substituted 1-(4'-alkylsulfonylphenyl)-2-amino-1,3-propanediols, pharmaceutical compositions containing them, having local anesthetic activity” (Zambon S.p.A., priority 1983, dated 1986)
Counter-ions that a name gives are not always drawn.

Legend:
Type in all cases: in vivo
[1] = system: cutaneous reflex after stimulation (guinea-pig back); assay: Local anesthetic activity, intradermal infiltration in the back of guinea-pig (Bulbring and Wayda); conditions: drug concentration inhibiting 50% of the occurence of the cutaneous reflex, 95% c.l. in parentheses
[2] = system: mouse; assay: in vivo; conditions: for LD50: mouse, i.v., administered as hydrochloride, observed for 24 hrs, 1440 min; for Therapeutic Index LD50/ED50: ratio of LD50 (mouse, i.v.) to ED50 (guinea pig local infiltration)
Excerpt: (§1) Toxicity study in mouse has been performed by intravenous administration.

[3] = in vivo; conditions: in vivo, iv
Excerpt: as §1

Row | Structure (SMILES) | LOCAL ANESTHETIC ACTIVITY ED50 (c.l. 95%) [1] | LD50 [2] [mmols/kg/iv] | Therapeutic Index LD50/ED50 [2] | also measured
1 | CC(COc1ccccc1)N[C@@H](CO)[C@@H](O)c1ccc(S(C)(=O)=O)cc1 (relative stereo) [Z. 1402, (1S,2S)-1-(4-methylsulfonylphenyl)-2-(1-methyl-2-phenoxyethylamino)-1,3-propanediol] | 0.075 (0.05-0.1) mM | 0.30 | 4 | –
2 | CC(COc1ccccc1)N[C@@H](CO)[C@@H](O)c1ccc(S(C)(=O)=O)cc1 (relative stereo) [Z. 1403, (1S,2S)-1-(4-methylsulfonylphenyl)-2-(1-methyl-2-phenoxyethylamino)-1,3-propanediol] | 0.049 mM | 0.80 | 16 | –
3 | CCN(CC)CC(=O)Nc1c(C)cccc1C [Lidocaine, reference compound] | – | – | – | LOCAL […] ED50 (c.l. 95%) [1]: 0.49 (0.34-0.71) mM
4 | CCN(CC)CCOC(=O)c1ccc(N)cc1 [Procaine, reference compound] | 2.3 (1.7-3.1) mM | – | – | –
5 | CS(=O)(=O)c1ccc([C@@H](O)[C@@H](CO)NCCC(c2ccccc2)c2ccccc2)cc1 [Z. 1395, (1R,2R)-1-(4-methylsulfonylphenyl)-2-(3,3-diphenylpropylamino)-1,3-propanediol maleate acid] | 0.73 (0.57-0.94) mM | – | – | –
6 | CS(=O)(=O)c1ccc([C@H](O)[C@H](CO)NCCC(c2ccccc2)c2ccccc2)cc1 [Z. 1396] | 0.36 (0.21-0.60) mM | – | – | selectivity ratio ([3]; ratio of LD50 (mouse, i.v.) to ED50 (guinea pig local infiltration), read-out: Therapeutic Index LD50/ED50): 0.5; LD50 at 24 h ([3]; mouse, administered as hydrochloride, observed for 24 hrs): 160 µmol/kg
